# Laboratory results: patent US6794408B2, “Drechsleranol derivatives, processes for their preparation and their use” (Aventis Pharma Deutschland GmbH, priority 2002, dated 2004)
# How the values were obtained:
# JNK-3 = JNK-3 (Homo sapiens, UniProt P53779); assay: JNK-3 assay (HTRF, JNK-3/GST-ATF2); assay type: biochemical; details: ATP 15 μM, 37° C., 20 minutes
# Description: The assay is carried out on a CyBio pipetter system in a 384-hole plate format. The assay contains 10 μL of sample (extract or pure substance, for example a compound of formula (II) or of formula (III)) in 3% DMSO, 10 μL of an enzyme/substrate mixture (JNK-3/GST-ATF2) and 10 μL of ATP in a final volume of 30 μL. After incubation at 37° C. for 20 minutes, 50 μL of the HTRF antibody mixture (XL665-anti-GST/(Eu)cryptate anti-P-ATF2) are added. After 120 minutes at room temperature, the signal emission of the energy transfer and of europium at 665 and 615 nm is measured after the samples have been stimulated at 340 nm in a Victor^2 (WALLAC).
# Buffer I for the Dilution of JNK3, GST-ATF2, ATP:
# Buffer II for the Dilution of the HTRF Reagents:
# Each plate contains 16 positive controls (maximum energy transfer, buffer I instead of samples), 8 blank controls (minimum energy transfer, buffer II instead of ATP) and 8 holes which contain EDTA 200 μM.
# The results are calculated as follows:
# Firstly, the signal ratio=(intensity (665 nm)/intensity (615 nm)) is determined. A blank correction is then made using the following formula:
# delta F(%)=[(ratio (sample)−ratio(minimum))/(ratio (minimum))]×100
# The activity of the samples is then calculated in the following manner:
# Inhibition (%)=100×[1−(delta F(sample)/delta F(maximum))]
# hCK1ε = hCK1ε (Homo sapiens, UniProt P49674); assay: hCK1ε assay (33P-ATP, casein-coated plates); assay type: biochemical; details: 0.4 μM cold ATP, 37° C., one hour
# Description: The assay is carried out in a Jobi-Well (CyBio) and Biomek 2000 pipetter system in the 384-hole plate format. The 384-hole plates are coated with 50 μL per well of a casein solution of the concentration 100 μg/mL in coating buffer (corresponds to 5 μg of casein per well, casein Sigma) and stored overnight at 4° C. Washing four times with 90 μL of wash solution 1 (50 mM HEPES pH 7.4 and 150 mM NaCl) is then carried out. The reaction is carried out in a final volume of 50 μL. During the course of this, 10 μL of dilute natural substance extract in each case, for example a compound of formula (II) or a compound of formula (III), 20 μL of hCK1ε enzyme solution (corresponds to 29 ng of […] per well) and 20 μL of ATP solution (final concentration: 0.4 μCi of ^33P-γ-ATP radiolabeled (“hot”) and 0.4 μM of cold ATP per well) are pipetted onto the coated plates. The plates are then incubated at 37° C. for one hour. The plates are then washed four times with 75 μL of wash solution 2 (phosphoric acid, 3%) and measured for 30 seconds in a MicroBeta Trilux counter (WALLAC).
# hCK1ε Enzyme Solution: 1.45 μg of Recombinant hCK1ε per mL of Kinase Buffer
# ATP Solution: 20 μCi/mL of ^33P-γ-ATP and 1 μM of Cold ATP […]
# The inhibition of a sample can be calculated according to the following formula: […]
# Sequence of JNK-3 (P53779 whole entry): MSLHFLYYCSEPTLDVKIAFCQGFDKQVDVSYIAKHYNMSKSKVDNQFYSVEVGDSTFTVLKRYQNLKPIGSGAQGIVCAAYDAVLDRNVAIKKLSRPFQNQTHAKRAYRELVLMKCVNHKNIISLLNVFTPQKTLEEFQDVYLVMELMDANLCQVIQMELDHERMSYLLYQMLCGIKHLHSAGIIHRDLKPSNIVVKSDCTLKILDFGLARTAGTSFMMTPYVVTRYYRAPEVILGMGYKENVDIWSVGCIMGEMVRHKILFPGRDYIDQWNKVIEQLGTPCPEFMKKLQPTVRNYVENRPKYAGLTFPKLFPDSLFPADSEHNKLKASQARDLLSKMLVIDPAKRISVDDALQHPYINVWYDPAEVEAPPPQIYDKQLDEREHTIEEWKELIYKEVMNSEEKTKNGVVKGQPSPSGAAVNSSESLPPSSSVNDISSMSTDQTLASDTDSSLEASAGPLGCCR
# Sequence of hCK1ε (P49674 whole entry): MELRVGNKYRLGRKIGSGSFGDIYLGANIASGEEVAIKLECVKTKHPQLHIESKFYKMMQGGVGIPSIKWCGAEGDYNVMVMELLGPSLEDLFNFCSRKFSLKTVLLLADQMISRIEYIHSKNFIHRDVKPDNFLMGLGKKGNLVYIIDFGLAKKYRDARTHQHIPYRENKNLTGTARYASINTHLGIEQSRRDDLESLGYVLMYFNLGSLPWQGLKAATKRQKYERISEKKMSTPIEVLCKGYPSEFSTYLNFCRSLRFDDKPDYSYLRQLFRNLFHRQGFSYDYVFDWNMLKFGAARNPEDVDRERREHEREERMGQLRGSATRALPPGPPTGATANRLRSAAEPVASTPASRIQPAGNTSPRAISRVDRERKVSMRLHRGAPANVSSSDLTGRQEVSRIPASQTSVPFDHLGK
IC50 (JNK-3),IC50 (hCK1ε),SMILES
2.8 µM,,Oc1cccc2ccc3c4ccc5cccc(O)c5c4oc3c12 [Compound III]
1.1 µM,2.9 µM,OCC(O)C(O)C(O)C(O)C(O)c1cc2c3ccc4cccc(O)c4c3oc2c2c(O)cccc12 (stereo not drawn) [Compound II]
